The target of this assay is T1, human CXCR3 (N-delta 4) (Homo sapiens, UniProt P49682).
T1 construct: CD8 leader (N); Flag tag (N); expressed in transfected cells; host or cells: mouse pro-B Ba/F3 cells, stably transfected with pME18Sneo-hCXCR3 (N-delta 4); membrane preparation
T1 sequence (P49682 5-368 limits assumed): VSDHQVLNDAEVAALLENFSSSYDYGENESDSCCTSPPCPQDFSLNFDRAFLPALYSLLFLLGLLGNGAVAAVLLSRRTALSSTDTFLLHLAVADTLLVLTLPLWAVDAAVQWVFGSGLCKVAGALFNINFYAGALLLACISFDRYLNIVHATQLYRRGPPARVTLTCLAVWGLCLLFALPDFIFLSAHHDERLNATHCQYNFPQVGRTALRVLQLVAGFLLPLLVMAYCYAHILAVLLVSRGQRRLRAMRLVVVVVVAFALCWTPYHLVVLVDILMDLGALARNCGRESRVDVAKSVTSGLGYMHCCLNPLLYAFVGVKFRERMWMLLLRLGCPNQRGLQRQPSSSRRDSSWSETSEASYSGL
Nature of the assay: Human CXCR3 (N-delta 4) Scintillation Proximity Assay (SPA), [125I] IP-10 binding. Particulars: IC50 rating; Ba/F3-hCXCR3 (N-delta 4) membranes, 25 pM [125I] IP-10; read-out: IC50. The method, boiled down:
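Membranes from mouse Ba/F3 pro-B cells stably expressing Flag-tagged human CXCR3 (N-delta 4), 2 μg per point, bound to WGA SPA beads. Compound titrations competed with 25 pM [125I] IP-10 for 3 hr at room temperature in HEPES buffer with Ca2+, Mg2+, NaCl, 1.0% BSA; bead-bound radioactivity counted, […] values reported.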
As a reminder, the IC50 is the concentration at which inhibition is half-maximal. For the molecule `CC[C@H]1CN(c2ncc(-c3nc[nH]n3)nc2C)CCN1C1CCN(C(=O)c2ccc(C)c(F)c2)CC1` [Compound 110], the 50% inhibitory concentration (IC50) was under 25 nM.
The figure for `CC[C@H]1CN(c2nc(N)c(-c3nnc(C(C)(C)O)o3)nc2Cl)CCN1C1CCN(Cc2ccc(Cl)cc2)CC1` [Compound 28] is under 25 nM; for `CC[C@H]1CN(c2nc(N)c(-c3nnc(C)o3)nc2Cl)CCN1C1CCN(Cc2ccc(Cl)cc2-c2nnn(C)n2)CC1` [Compound 58] it is under 25 nM.
The figure for `CC[C@H]1CN(c2nc(N)c(-c3nnc(C(=O)NCC(F)(F)F)o3)nc2Cl)CCN1C1CCN(C(=O)c2ccc(Cl)cc2)CC1` [Compound 77] is 25 to 100 nM.
The figure for `CC[C@H]1CN(c2nc(N)c(-c3nnc(C(F)(F)F)o3)nc2Cl)CCN1C1CCN(C(=O)c2ccc(Cl)cc2)CC1` [Compound 80] is over 100 nM.
In the case of `CC[C@H]1CN(c2nc(N)c(-c3nnc(CN)o3)nc2Cl)CCN1C1CCN(C(=O)c2ccc(Cl)nc2N)CC1` [Compound 34], the IC50 is under 25 nM.
The figure for `CC[C@H]1CN(c2nc(N)c(-c3nnc(N)o3)nc2Cl)CCN1C1CCN(Cc2ccc(Cl)cc2F)CC1` [Compound 3] is under 25 nM; for `CCNc1nnc(-c2cnc(N3CCN(C4CCN(C(=O)c5ccc(Cl)c(F)c5)CC4)[C@@H](CC)C3)c(C)n2)o1` [Compound 164] it is under 25 nM; for `CC[C@H]1CN(c2nc(N)c(-c3nnc(N)[nH]3)nc2Cl)CCN1C1CCN(C(=O)c2ccc(Cl)nc2N)CC1` [Compound 30] it is under 25 nM.
The figure for `CC[C@H]1CN(c2ncc(-c3n[nH]c(N)n3)nc2C)CCN1C1CCN(C(=O)c2ccc(Cl)nc2N)CC1` [Compound 44] is under 25 nM; for `CC[C@H]1CN(c2ncc(-c3ncc[nH]3)nc2C)CCN1C1CCN(C(=O)c2ccc(Cl)nc2N)CC1` [Compound 119] it is under 25 nM.
`CC[C@H]1CN(c2ncc(-c3nnc(N)o3)nc2C)[C@H](C)CN1C1CCN([C@H](C(=O)OC)c2ccc(Cl)cc2)CC1` [Compound 170]: the half-inhibitory concentration (IC50) fell in the range of 25 to 100 nM.
The figure for `CCNc1nnc(-c2cnc(N3CCN(C4CCN(C(=O)c5ccc(Cl)nc5N)CC4)[C@@H](CC)C3)c(C(F)(F)F)n2)o1` [Compound 103] is under 25 nM; for `CCNc1nnc(-c2cnc(N3CCN(C4CCN([C@@H](CO)c5ccc(Cl)cc5)CC4)[C@@H](CC)C3)c(C)n2)o1` [Compound 162] it is under 25 nM; for `CCNc1nnc(-c2cnc(N3CCN(C4CCN(C(=O)c5ccc(C(F)(F)F)nc5N)CC4)[C@@H](CC)C3)c(C)n2)o1` [Compound 184] it is under 25 nM.
`CC[C@H]1CN(c2ncc(-c3ncc[nH]3)nc2C)CCN1C1CCN(Cc2ccc(F)cc2)CC1` [Compound 104]: the IC50 is under 25 nM.
On to `CCOC(=O)CNc1nnc(-c2nc(C)c(N3CCN(C4CCN(C(=O)c5ccc(Cl)nc5N)CC4)[C@@H](CC)C3)nc2N)o1` [Compound 192], for which the half-inhibitory concentration (IC50) was under 25 nM.
Next, `CC[C@H]1CN(c2ncc(-c3nnc(C)o3)nc2Cl)CCN1C1CCN(C(=O)c2ccc(Cl)nc2N)CC1` [Compound 151]: under 25 nM; `CCNc1nnc(-c2cnc(N3CCN(C4CCN(C(=O)c5ccc(C)cc5)CC4)[C@@H](CC)C3)c(C)n2)o1` [Compound 126]: under 25 nM; `CC[C@H]1CN(c2nc(N)c(-c3nnc(C(N)=O)o3)nc2Cl)CCN1C1CCN(C(=O)c2ccc(Cl)nc2N)CC1` [Compound 40]: under 25 nM.
The figure for `CC[C@H]1CN(c2nc(N)c(-c3nnc(N)o3)nc2Cl)CCN1C1CCN(C(=O)c2ccc(OC(F)(F)F)cc2)CC1` [Compound 76] is 25 to 100 nM; for `CC[C@H]1CN(c2ncc(-c3nnc[nH]3)nc2C)CCN1C1CCN(Cc2ccc(F)cc2)CC1` [Compound 105] it is under 25 nM; for `CC[C@H]1CN(c2ncc(-c3nnc(C)o3)nc2C)CCN1C1CCN(C(=O)c2ccc(Cl)cc2N)CC1` [Compound 21] it is under 25 nM.
Next, `CCNc1nnc(-c2cnc(N3C[C@H](CC)N(C4CCN(C(=O)c5ccc(Cl)nc5N)CC4)C[C@H]3C)c(Cl)n2)o1` [Compound 100]: under 25 nM.
For the molecule `CC[C@H]1CN(c2ncc(-c3nnc(N)[nH]3)nc2C)CCN1C1CCN(C(=O)c2ccc(Cl)cc2)CC1` [Compound 120], the half-maximal inhibitory concentration (IC50) is under 25 nM.
The figure for `CC[C@H]1CN(c2nc(N)c(-c3nnc(N)o3)nc2Cl)CCN1C1CCN(C(=O)c2ccc(C#N)cc2)CC1` [Compound 56] is under 25 nM.
Next, `CC[C@H]1CN(c2nc(N)c(-c3nnc(C(C)(C)O)o3)nc2Cl)CCN1C1CCN(C(=O)c2ccc(Cl)cc2)CC1` [Compound 78]: 25 to 100 nM.
Next, `CCNc1nnc(-c2cnc(N3CCN(C4CCN(C(=O)c5ccc(Cl)s5)CC4)[C@@H](CC)C3)c(C)n2)o1` [Compound 149]: under 25 nM; `CC[C@H]1CN(c2ncc(-c3ncc[nH]3)nc2C)CCN1C1CCN(Cc2ccc(Cl)cc2)CC1` [Compound 107]: under 25 nM; `CC[C@H]1CN(c2nc(NC(C)=O)c(-c3nnc(C)o3)nc2Cl)CCN1C1CCN(Cc2ccc(Cl)cc2)CC1` [Compound 90]: over 100 nM.
Consider `CC[C@H]1CN(c2nc(N)c(-c3nnc(C(=O)NC4CC4)o3)nc2Cl)CCN1C1CCN(C(=O)c2ccc(Cl)cc2)CC1` [Compound 88], for which the IC50 is over 100 nM.
Next, `CCO/C=N\c1nc(N2CCN(C3CCN(Cc4ccc(Cl)cc4)CC3)[C@@H](CC)C2)c(Cl)nc1-c1nnco1` [Compound 60]: under 25 nM; `CCNc1nnc(-c2cnc(N3CCN(C4CCN(C(=O)c5ccc(Cl)c(C)c5)CC4)[C@@H](CC)C3)c(C)n2)o1` [Compound 155]: under 25 nM; `CC[C@H]1CN(c2ncc(-c3nnc(N)o3)nc2C)[C@H](C)CN1C1CCN([C@@H](C)c2ccc(OC(F)(F)F)cc2)CC1` [Compound 177]: under 25 nM.
As for `CC[C@H]1CN(c2nc(N)c(-c3nnc(CO)o3)nc2Cl)CCN1C1CCN([C@H](CO)c2ccc(Cl)cc2)CC1` [Compound 69], the 50% inhibitory concentration (IC50) is under 25 nM.
The figure for `CC[C@H]1CN(c2ncc(-c3nnc(C)o3)nc2C)CCN1C1CCN(C(=O)c2ccc(F)c(F)c2)CC1` [Compound 63] is under 25 nM; for `CC[C@H]1CN(c2nc(N)c(-c3nnc(C)o3)nc2Cl)CCN1C1CCN(C(=O)c2cc(F)c(Cl)nc2Cl)CC1` [Compound 31] it is under 25 nM; for `CC[C@H]1CN(c2ncc(C3=NCCN3)nc2C)[C@H](C)CN1C1CCN(C(=O)c2ccc(Cl)cc2)CC1` [Compound 116] it is under 25 nM.
The figure for `CC[C@H]1CN(c2ncc(-c3nnc(C)[nH]3)nc2Cl)CCN1C1CCN(C(=O)c2ccc(Cl)cc2)CC1` [Compound 51] is under 25 nM; for `CC[C@H]1CN(c2ncc(-c3nnc(N)o3)nc2C)[C@H](C)CN1C1CCN([C@H](C)c2ccc(OC(F)(F)F)cc2)CC1` [Compound 178] it is under 25 nM; for `CC[C@H]1CN(c2nc(N)c(-c3nnc(C)o3)nc2Cl)CCN1C1CCN(C(=O)c2ccc(Cl)cc2O)CC1` [Compound 67] it is under 25 nM.
The figure for `CCNc1nnc(-c2cnc(N3CCN(C4CCN(C(=O)c5ccc(C(F)(F)F)cc5)CC4)[C@@H](CC)C3)c(C)n2)o1` [Compound 176] is under 25 nM; for `CC[C@H]1CN(c2ncc(-c3ncc[nH]3)nc2C)CCN1C1CCN(Cc2ccc(F)c(F)c2)CC1` [Compound 108] it is under 25 nM; for `CC[C@H]1CN(c2ncc(-c3nc[nH]n3)nc2C)[C@H](C)CN1C1CCN(C(=O)c2ccc(Cl)nc2N)CC1` [Compound 131] it is under 25 nM.
Consider `CCOC(=O)CNc1nnc(-c2cnc(N3CCN(C4CCN(Cc5ccc(F)c(F)c5COCc5ccccc5)CC4)[C@@H](CC)C3)c(C)n2)o1` [Compound 195], for which the concentration for half-maximal inhibition (IC50) was 25 to 100 nM.
The figure for `CC[C@H]1CN(c2ncc(-c3nc4ccccc4[nH]3)nc2C)CCN1C1CCN(C(=O)c2ccc(Cl)cc2)CC1` [Compound 146] is under 25 nM; for `CCNc1nnc(-c2cnc(N3CCN(C4CCN(C(=O)c5ccc(Cl)cc5)CC4)[C@@H](CC)C3)c(C)n2)o1` [Compound 142] it is under 25 nM; for `CCNc1nnc(-c2cnc(N3CCN(C4CCN(C(=O)c5ccc(Cl)cc5C)CC4)[C@@H](CC)C3)c(C)n2)o1` [Compound 156] it is under 25 nM.
The figure for `CC[C@H]1CN(c2ncc(-c3ncc[nH]3)nc2C)CCN1C1CCN(C(=O)c2ccc(Cl)c(F)c2)CC1` [Compound 124] is under 25 nM; for `CC[C@H]1CN(c2ncc(C3=NCCN3)nc2C)[C@H](C)CN1C1CCN(Cc2ccc(OC(F)(F)F)cc2)CC1` [Compound 150] it is under 25 nM; for `CC[C@H]1CN(c2nc(N)c(-c3nnc(CO)o3)nc2Cl)CCN1C1CCN(Cc2ccc(Cl)cc2C#N)CC1` [Compound 45] it is under 25 nM.
Next, `CC[C@H]1CN(c2nc(N)c(-c3nnc(N)[nH]3)nc2Cl)CCN1C1CCN(C(=O)c2ccc(Cl)cc2)CC1` [Compound 68]: under 25 nM; `CC[C@H]1CN(c2ncc(C3=NCCN3)nc2Cl)CCN1C1CCN(C(=O)c2ccc(Cl)nc2N)CC1` [Compound 27]: under 25 nM; `CC[C@H]1CN(c2nc(N)c(-c3nnc(CO)o3)nc2Cl)CCN1C1CCN([C@@H](C(=O)OC)c2ccc(Cl)cc2)CC1` [Compound 47]: under 25 nM.
In the case of `CCNc1nnc(-c2cnc(N3CCN(C4CCN(C(=O)c5ccc(F)c(F)c5)CC4)[C@@H](CC)C3)c(C)n2)o1` [Compound 144], the half-inhibitory concentration (IC50) was under 25 nM.

The values above are taken from patent publication US7868006B2, “Heterocyclic substituted piperazines with CXCR3 antagonist activity” (Schering Corporation, priority 2005, dated 2011).
